Assay results as given in US20160002596A1, “COMPOSITION FOR EX VIVO CULTURING OF A CORNEAL ENDOTHELIAL CELL AND A METHOD FOR USING THE COMPOSITION” (National Taiwan University, priority 2014, published 2016).

Columns and labels:
Assay type in all cases: cell-based, bovine
[1] = system: active beta-catenin (ABC); assay: Western blot of active beta-catenin (ABC) expression in corneal endothelial cells
Method: With reference to FIG. 5, FIG. 5 was the Western blot analysis showing the expression level of active beta-catenin (ABC) in corneal endothelial cells treated with different concentrations of Marimastat or ADAM10 (ADAM metallopeptidase domain 10) specific inhibitor GI254023X. In group 1-3, the corneal endothelial cells were incubated in the SHEM added with 100 nM, 1 uM or 10 uM of GI254023X, respectively. In group 4-6, cells were incubated in the SHEM added with 100 nM, 1 uM or 10 uM of Marimastat, respectively. In group 1-3, there was no reduction in the expression level of ABC in the presence of ADAM10 specific inhibitor, GI254023X. In group 4, ABC expression level was high despite 100 nM of Marimastat.

[2] = system: corneal endothelial cells; assay: Phenotype (cell shape) of ex vivo cultured corneal endothelial cells, immunofluorescence staining against active beta-catenin
[3] = system: corneal endothelial cells; assay: Growth / proliferation of ex vivo cultured corneal endothelial cells
Description: Y-27632 is a known growth stimulator for corneal endothelial cells that is able to increase the ex vivo cell proliferation.

`CNC(=O)[C@@H](NC(=O)[C@H](CCCc1ccccc1)[C@H](C)N(O)C=O)C(C)(C)C` [GI254023X] was tested, and the “expression level of active beta-catenin (ABC)” value (shortened to “expression level”) ([1]; group 1-3: 100 nM, 1 uM or 10 uM in SHEM) was “no reduction”.
`CNC(=O)[C@@H](NC(=O)[C@H](CC(C)C)[C@H](O)C(=O)NO)C(C)(C)C` [Marimastat] was tested, and the “cell morphology of cultured corneal endothelial cells” value ([2]; group 2 or 4: SHEM with 10 uM MMPI (without or with 10 uM Y-27632) for 9 days) was “maintained hexagonal morphology”, the “cell growth of corneal endothelial cells” value ([3]; groups 2, 4 and 6: 10 uM MMPI added in the SHEM) was “not obviously inhibited or reduced” and the “expression level” value ([1]; group 4: 100 nM in SHEM) was “high”. The “expression level” value ([1]; more than 1 uM in SHEM (groups 5-6: 1 uM, 10 uM)) was “significantly reduced”.
`C[C@@H](N)[C@H]1CC[C@H](C(=O)Nc2ccncc2)CC1` [Y-27632] was tested, and the “cell shape of cultured corneal endothelial cells” value ([2]; group 3 or 5: SHEM with 10 uM Y-27632 (9 days, or first 3 days only)) was “elongated and fibroblast-like” and the “proliferation of corneal endothelial cells” value ([3]; group 3 or 5: SHEM with 10 uM Y-27632) was “enhanced proliferation”.
